Read-outs that look alike come from different tables or passages of the source.
What was measured:
Rat white adipocytes = assay: Stimulation of differentiation of the adipocytes (Oil Red O); type: cell-based; conditions: 100 nM test compound, 5 days, Oil Red O ABS550, control = 100%, blank = 0%, Table 7; for activity at 0.1 µM: Rattus norvegicus, Adipocyte, 120 h, read-out: Rate of Differentiation (%)
Procedure: Rat white adipocytes contained in the white adipocyte culture kit, which was purchased from HOKUDO, were used. Mediums for proliferation and for differentiation-inducing, which were contained in the white adipocyte culture kit purchased from HOKUDO, were used.
Immediately after arrival of the purchased cells, all medium for transportation was discarded and replaced with 5 ml of proliferation medium (/25 cm^2-flask) and the cells were cultured for one day. Then, a cell suspension was prepared with proliferation medium so as to be 83,000 cells/mL, and the suspension was plated into a type I 96-well collagen-coated microplate (SUMITOMO BAKELITE CO., ltd.) so as to be 5,000 cells/well (60 μL/well). For the blank, the proliferation medium without the cells was plated into the well (blank well) of each plate.
Further, 1) in the group treated with the test compound, 3 μL/well of a solution in which the test compound (100 μM) was dissolved in DMSO solution and diluted with differentiation-inducing medium by 20 times (final concentration of the test compound: 100 nM, final concentration of DMSO: 0.1% (v/v)) were added to the well where the cells were plated. 2) In the control group, 3 μL/well of DMSO solution that was diluted with differentiation-inducing medium by 20 times (final concentration of DMSO: 0.1% (v/v)) were added to the well where the cells were plated. Further, 3) in the blank group, 3 μL/well of DMSO solution that was diluted with differentiation-inducing medium by 20 times (final concentration: 0.1% (v/v)) were added to the blank well.
After culturing for 5 days, all differentiation-inducing medium was discarded and replaced with 60 μL of 10% (v/v) of formaldehyde solution (for fixation) in each well and the cells were kept stationary for 20 min at room temperature. After this the fixative solution was discarded and replaced with 60 μL of 0.2% (v/v) Triton X (Sigma-Aldrich Japan K. K.) solution in each well and kept stationary for 5 min at the room temperature. Then all Triton X solution was discarded and replaced with 60 μL of 60% (v/v) isopropanol solution containing dissolved Oil Red 0 (Sigma-Aldrich Japan K. K.) so as to be 0.3%, which was adipose tissue staining solution, and the well was left stationary for 10 min at room temperature. After the adipose tissue staining solution was discarded, the well was washed twice with 60 μL of 60% (v/v) isopropanol solution. Then, 100 μL of the DMSO were added to each well and stirred for 5 min at room temperature. The absorbance was measured at 550 nm (ABS550) with a multi-plate reader (LabsSystems), and the stained amount by Oil Red 0 was determined. The measured level at ABS550 in the control group was defined as 100%, while the level at ABS550 in the blank group was defined as 0%. The differentiation rate (%) of the adipocytes treated with the test compound was calculated.

[1] = test system: Mouse preadipocyte strain 3T3-L1; assay: Inhibition of differentiation as an indication of acetic acid uptake; type: cell-based; conditions: control (0.01% dimethylsulfoxide) = 100%; for activity at 0.1 µM: Mus musculus, read-out: Rate of Uptake (%) of [2-14C] acetic acid
How it was run: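 Confluent 3T3-L1 cells induced to differentiate for 4 days (insulin, IBMX, dexamethasone, 5% FBS) with test compound at 0.1 μM final or 0.01% DMSO, then 2 days in insulin maintenance medium, at 37 °C, 10% CO2. [2-14C]acetic acid uptake over 1 hr counted by scintillation; expressed as % of DMSO control.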

Compound | activity at 0.1 µM (Rat white adipocytes) | activity at 0.1 µM ([1]; 3T3-L1, 0.1 μM test substance) | Rate of Differentiation (%) (Rat white adipocytes) | Rate of Uptake (%) of [2-14C] acetic acid ([1]; 0.1 μM test substance) | activity at 0.1 µM ([1]; 0.1 μM test substance)
O=C(Nc1ncc(Br)s1)c1cc([N+](=O)[O-])ccc1Cl [Example 48, N-(5-Bromothiazol-2-yl)-(2-chloro-5-nitrophenyl)carboxamide] | 131% | 70.3% |  |  | 
COC(=O)c1nccnc1NC(=O)c1cc([N+](=O)[O-])ccc1Cl [Example 60, N-(2-Metboxycarbonylpyrazin-3-yl)-(2-chloro-5-nitrophenyl)carboxamide] |  |  | 110.5% | 68.8% | 
Cc1ccnc(NC(=O)c2cc([N+](=O)[O-])ccc2Cl)c1[N+](=O)[O-] [Example 63, N-(4-Methyl-3-nitropyridin-2-yl)-(2-chloro-5-nitrophenyl)carboxamide] | 120% |  |  |  | 85.5%
O=C(Nc1nc2ccc(F)cc2s1)c1cc([N+](=O)[O-])ccc1Cl [Example 70, N-(6-Fluorobenzothiazol-2-yl)-(2-chloro-5-nitrophenyl)carboxamide] | 122% | 70.2% |  |  | 
O=C(Nc1ncccc1[N+](=O)[O-])c1cc([N+](=O)[O-])ccc1Cl [Example 80, N-(3-Nitropyridin-2-yl)-(2-chloro-5-nitrophenyl)carboxamide] | 118% |  |  |  | 83.3%
O=C(Nc1ccc(N2CCOCC2)cc1)c1cc([N+](=O)[O-])ccc1Cl [Example 113, N-[4-(Morpholin-4-yl)phenyl]-(2-chloro-5-nitrophenyl)carboxamide] | 111% | 84.6% |  |  | 
O=C(O)c1cccc(NC(=O)c2cc([N+](=O)[O-])ccc2Cl)c1 [Example 145, 3-(2-Chloro-5-nitrobenzoylamino)benzoic Acid] | 141% | 87.6% |  |  | 
O=C(Nc1cccnc1)c1ccc(NC(=O)c2cc([N+](=O)[O-])ccc2Cl)cc1 [Example 148, N-[4-(Pyridin-3-ylaminocarbonyl)phenyl]-(2-chloro-5-nitrophenyl)carboxamide] | 119% | 75.3% |  |  | 
N-(5-Bromo-3-nitropyridin-2-yl)-(−2-chloro-5-nitrophenyl-carboxamide [Example 84] |  |  | 151.4% | 59.5% | 
